Source: PubChem BioAssay AID1259411 (Chemical Carcinogenesis Research Information System (CCRIS), 2018)
Activity calls are given as the source filed them. No rule for the calls is given here.

System: rodent carcinogenicity bioassays, tumor incidence
Assay: CCRIS carcinogenicity studies
Method in brief: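 Archive of carcinogenicity, mutagenicity, tumor promotion and tumor inhibition results drawn from journals, NCI reports and other sources, expert-reviewed; covers 1985-2011 and is no longer updated.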

Compound: Nc1cccc(N)c1
- carcinogen call (Species: MOUSE, Strain/Sex: B6C3F1/FEMALE, Route: ORAL, Dose: 0, 0.02, 0.04% IN DRINKING WATER FOR 78 WK, TOTAL INTAKE 13.0, 22.9 G/KG (STUDY DURATION: 85 WK), Dose: 0, 0.02, 0.04% IN DRINKING WATER FOR 78 WK, TOTAL INTAKE 13.0, 22.9 G/KG (STUDY DURATION: 85 WK)): inactive; negative
- carcinogen call (Species: MOUSE, Strain/Sex: B6C3F1/MALE, Route: ORAL, Dose: 0, 0.02, 0.04% IN THE DRINKING WATER FOR 78 WK, TOTAL INTAKE 10.9, 21.0 G/KG BODY WEIGHT (STUDY DURATION: 85 WK), Dose: 0, 0.02, 0.04% IN THE DRINKING WATER FOR 78 WK, TOTAL INTAKE 10.9, 21.0 G/KG BODY WEIGHT (STUDY DURATION: 85 WK)): inactive; negative

Compound: CC1(C)S[C@@H]2[C@H](NC(=O)COc3ccccc3)C(=O)N2[C@H]1C(=O)O
- carcinogen call (Species: MOUSE, Strain/Sex: B6C3F1/FEMALE, Route: GAVAGE, Dose: 0, 500, 1000 MG/KG IN CORN OIL 5 D/WK FOR 103-104 WK (STUDY DURATION: 106 WK), Dose: 0, 500, 1000 MG/KG IN CORN OIL 5 D/WK FOR 103-104 WK (STUDY DURATION: 106 WK)): inactive; negative
- carcinogen call (Species: MOUSE, Strain/Sex: B6C3F1/FEMALE, Route: GAVAGE, Dose: 0, 500, 1000 MG/KG IN CORN OIL 5D/WK FOR 104 WK, Dose: 0, 500, 1000 MG/KG IN CORN OIL 5D/WK FOR 104 WK): inactive; negative
- carcinogen call (Species: MOUSE, Strain/Sex: B6C3F1/MALE, Route: GAVAGE, Dose: 0, 500, 1000 MG/KG IN CORN OIL 5 D/WK FOR 103-104 WK (STUDY DURATION: 106 WK), Dose: 0, 500, 1000 MG/KG IN CORN OIL 5 D/WK FOR 103-104 WK (STUDY DURATION: 106 WK)): inactive; negative
- carcinogen call (Species: MOUSE, Strain/Sex: B6C3F1/MALE, Route: GAVAGE, Dose: 0, 500, 1000 MG/KG IN CORN OIL 5D/WK FOR 104 WK, Dose: 0, 500, 1000 MG/KG IN CORN OIL 5D/WK FOR 104 WK): inactive; negative
- carcinogen call (Species: RAT, Strain/Sex: F344/FEMALE, Route: GAVAGE, Dose: 0, 500, 1000 MG/KG IN CORN OIL 5 D/WK FOR 103-104 WK (STUDY DURATION: 106 WK), Dose: 0, 500, 1000 MG/KG IN CORN OIL 5 D/WK FOR 103-104 WK (STUDY DURATION: 106 WK)): inactive; negative
- carcinogen call (Species: RAT, Strain/Sex: F344/FEMALE, Route: GAVAGE, Dose: 0, 500, 1000 MG/KG IN CORN OIL 5D/WK FOR 103 WK (STUDY DURATION: 104 WK), Dose: 0, 500, 1000 MG/KG IN CORN OIL 5D/WK FOR 103 WK (STUDY DURATION: 104 WK)): inactive; negative
- carcinogen call (Species: RAT, Strain/Sex: F344/MALE, Route: GAVAGE, Dose: 0, 500, 1000 MG/KG IN CORN OIL 5 D/WK FOR 103-104 WK (STUDY DURATION: 106 WK), Dose: 0, 500, 1000 MG/KG IN CORN OIL 5 D/WK FOR 103-104 WK (STUDY DURATION: 106 WK)): inactive; negative
- carcinogen call (Species: RAT, Strain/Sex: F344/MALE, Route: GAVAGE, Dose: 0, 500, 1000 MG/KG IN CORN OIL 5D/WK FOR 103 WK (STUDY DURATION: 104 WK), Dose: 0, 500, 1000 MG/KG IN CORN OIL 5D/WK FOR 103 WK (STUDY DURATION: 104 WK)): inactive; negative

Compound: Nc1nc2ncc(CNc3ccc(C(=O)N(N=O)[C@@H](CCC(=O)O)C(=O)O)cc3)nc2c(=O)[nH]1
- carcinogen call (Species: RAT, Route: ORAL, Tumor Site: Type of Lesion: LIVER): active; positive

Compound: Cc1c(N)nc(C)c2c1[nH]c1ccccc12
- carcinogen call (Species: MOUSE, Strain/Sex: CDF1/FEMALE, Route: ORAL, Dose: 0, 200 PPM IN DIET FOR 621 D, Tumor Site: Type of Lesion: LIVER: HEPATOCELLULAR CARCINOMA): active; positive
- carcinogen call (Species: MOUSE, Strain/Sex: DDY/FEMALE, Route: BLADDER IMPLANT, Dose: 0, 5% IN PARAFFIN PELLET (STUDY DURATION: 40 WK), Tumor Site: Type of Lesion: URINARY BLADDER: TRANSITIONAL CELL CARCINOMA): active; positive
- carcinogen call (Species: RAT, Strain/Sex: F344/FEMALE, Route: ORAL, Dose: 0, 0.02% IN PELLET DIET FOR DURATION OF STUDY (STUDY DURATION: 365 D), Tumor Site: Type of Lesion: LIVER: TRABECULAR CARCINOMA, ADENOCARCINOMA): active; positive
- carcinogen call (Species: RAT, Strain/Sex: F344/MALE, Route: ORAL, Dose: 0, 0.015% IN PELLET DIET FOR DURATION OF STUDY (STUDY DURATION: 365 D), Tumor Site: Type of Lesion: LIVER: TRABECULAR CARCINOMA, ADENOCARCINOMA): active; positive

Compound: CC(C)(C)NC[C@H](O)COc1cccc2c1CCCC2=O
- carcinogen call (Species: MOUSE, Strain/Sex: SWISS/MALE, Route: ORAL, Dose: 0, 12, 50, 200 MG/KG/D IN DIET FOR 80 WK (STUDY DURATION: 80 WK), Dose: 0, 12, 50, 200 MG/KG/D IN DIET FOR 80 WK (STUDY DURATION: 80 WK)): inactive; negative
- carcinogen call (Species: RAT, Strain/Sex: WISTAR/FEMALE, Route: ORAL, Dose: 0, 0.5, 2, 5 MG/KG/D IN DIET FOR 2 YR (STUDY DURATION: 2 YR), Dose: 0, 0.5, 2, 5 MG/KG/D IN DIET FOR 2 YR (STUDY DURATION: 2 YR)): inactive; negative
- carcinogen call (Species: RAT, Strain/Sex: WISTAR/FEMALE, Route: ORAL, Dose: 0, 5, 30, 180 MG/KG/D IN DIET FOR 2 YR (STUDY DURATION: 2 YR), Dose: 0, 5, 30, 180 MG/KG/D IN DIET FOR 2 YR (STUDY DURATION: 2 YR)): inactive; negative
- carcinogen call (Species: RAT, Strain/Sex: WISTAR/MALE, Route: ORAL, Dose: 0, 0.5, 2, 5 MG/KG/D IN DIET FOR 2 YR (STUDY DURATION: 2 YR), Dose: 0, 0.5, 2, 5 MG/KG/D IN DIET FOR 2 YR (STUDY DURATION: 2 YR)): inactive; negative
- carcinogen call (Species: RAT, Strain/Sex: WISTAR/MALE, Route: ORAL, Dose: 0, 5, 30, 180 MG/KG/D IN DIET FOR 2 YR (STUDY DURATION: 2 YR), Dose: 0, 5, 30, 180 MG/KG/D IN DIET FOR 2 YR (STUDY DURATION: 2 YR), Tumor Site: Type of Lesion: LIVER: HEPATOMA): active; positive

Compound: O=S(=O)(O)c1cc(S(=O)(=O)O)c2c(N=Nc3ccccc3)c(O)ccc2c1
- carcinogen call (Species: MOUSE, Strain/Sex: B6C3F1/FEMALE, Route: ORAL, Dose: 0, 3000, 6000 PPM IN DIET FOR 103 WK (STUDY DURATION: 104 WK), Dose: 0, 3000, 6000 PPM IN DIET FOR 103 WK (STUDY DURATION: 104 WK)): inactive; negative
- carcinogen call (Species: MOUSE, Strain/Sex: B6C3F1/MALE, Route: ORAL, Dose: 0, 3000, 6000 PPM IN DIET FOR 103 WK (STUDY DURATION: 104 WK), Dose: 0, 3000, 6000 PPM IN DIET FOR 103 WK (STUDY DURATION: 104 WK)): inactive; negative
- carcinogen call (Species: RAT, Strain/Sex: F344/FEMALE, Route: ORAL, Dose: 0, 1000, 3000 PPM IN DIET FOR 103 WK (STUDY DURATION: 104 WK), Dose: 0, 1000, 3000 PPM IN DIET FOR 103 WK (STUDY DURATION: 104 WK)): inactive; negative
- carcinogen call (Species: RAT, Strain/Sex: F344/MALE, Route: ORAL, Dose: 0, 1000, 3000 PPM IN DIET FOR 103 WK (STUDY DURATION: 104 WK), Dose: 0, 1000, 3000 PPM IN DIET FOR 103 WK (STUDY DURATION: 104 WK)): inactive; negative
